Test results reported in patent publication US20240158446A1, “CYCLIC COMPOUND HAVING SELECTIVE INHIBITORY ACTION ON KRAS OVER HRAS AND NRAS” (CHUGAI SEIYAKU KABUSHIKI KAISHA, priority 2021, published 2024).

How the values were obtained:
[1] = biological target: GDP-bound HRAS wild-type protein (Homo sapiens, UniProt P01112); experiment: Binding to HRAS by surface plasmon resonance (SPR), Single Cycle Kinetics; conditions: SPR; GDP-bound HRAS wild-type protein vs GDP-bound KRAS wild-type protein; KD ratio class
[2] = biological target: GDP-bound NRAS wild-type protein (Homo sapiens, UniProt P01111); experiment: Binding to NRAS by surface plasmon resonance (SPR), Single Cycle Kinetics; conditions: SPR; GDP-bound NRAS wild-type protein vs GDP-bound KRAS wild-type protein; KD ratio class
[3] = tested on: human lung cancer strain NCI-H441;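 also: cell proliferation inhibition after four days measured by CellTiter-Glo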
[4] = biological target: GDP-bound KRAS wild-type protein (Homo sapiens, UniProt P01116); experiment: Binding to KRAS by surface plasmon resonance (SPR), Single Cycle Kinetics; conditions: SPR, Single Cycle Kinetics, 1:1 binding model; GDP-bound KRAS wild-type protein; read-out: KRAS KD
Chain of GDP-bound KRAS wild-type protein (P01116 whole entry): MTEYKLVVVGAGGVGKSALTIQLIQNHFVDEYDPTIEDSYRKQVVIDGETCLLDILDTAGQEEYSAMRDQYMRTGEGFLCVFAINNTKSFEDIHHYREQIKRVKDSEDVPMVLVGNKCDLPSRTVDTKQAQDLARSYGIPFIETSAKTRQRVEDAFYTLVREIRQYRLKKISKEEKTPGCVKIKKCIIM

Chain of GDP-bound HRAS wild-type protein (P01112 whole entry): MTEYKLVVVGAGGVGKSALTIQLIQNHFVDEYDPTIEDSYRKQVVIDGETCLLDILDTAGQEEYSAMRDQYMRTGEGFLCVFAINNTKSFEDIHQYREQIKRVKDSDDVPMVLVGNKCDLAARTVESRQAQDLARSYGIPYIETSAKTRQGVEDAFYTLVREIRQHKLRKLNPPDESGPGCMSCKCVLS
Chain of GDP-bound NRAS wild-type protein (P01111 whole entry): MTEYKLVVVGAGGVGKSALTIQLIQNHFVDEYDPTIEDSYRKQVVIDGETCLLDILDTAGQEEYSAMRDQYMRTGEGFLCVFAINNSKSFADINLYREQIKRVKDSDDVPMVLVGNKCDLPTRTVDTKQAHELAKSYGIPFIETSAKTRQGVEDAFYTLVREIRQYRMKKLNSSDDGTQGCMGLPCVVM

SMILES	IC50 [3] [nM]	Kd [4] [nM]	HRAS/KRAS (ratio of KD value for HRAS to KD value for KRAS) [1]	NRAS/KRAS (ratio of KD value for NRAS to KD value for KRAS) [2]
CCO[C@@H]1C[C@H]2C(=O)NC3(CCC3)C(=O)N(C)[C@@H](C(CC)CC)C(=O)N(C)[C@H](C(=O)N(C)C)CC(=O)N(C)[C@@H](C)C(=O)N[C@@H]([C@@H](C)CC)C(=O)N(C)CC(=O)N(C)[C@H]3C/C=C\CCN(C3=O)[C@@H](Cc3ccc(C(F)(F)F)cc3)C(=O)N(C)CC(=O)N[C@@H](CCc3ccc4sccc4c3)C(=O)N2C1 [PP1222]	301	1.2	A (a compound having 10 or more and less than 20 is denoted as A)	A (a compound having 10 or more and less than 20 is denoted as A)
CCC[C@H]1C(=O)N[C@@H]([C@@H](C)CC)C(=O)N(C)CC(=O)N(C)[C@H]2C/C=C\CCN(C2=O)[C@@H](Cc2ccc(C(F)(F)F)cc2)C(=O)N(C)CC(=O)N[C@@H](CCc2ccc3sccc3c2)C(=O)N2C[C@H](OCC)C[C@H]2C(=O)NC2(CCC2)C(=O)N(C)[C@@H](C(CC)CC)C(=O)N(C)[C@H](C(=O)N(C)C)CC(=O)N1C [PP1224]	122	1.2	A (a compound having 10 or more and less than 20 is denoted as A)	A (a compound having 10 or more and less than 20 is denoted as A)
CCO[C@@H]1C[C@H]2C(=O)NC3(CCC3)C(=O)N(C)[C@@H](C(CC)CC)C(=O)N(C)[C@H](C(=O)N(C)C)CC(=O)N(C)[C@@H](CC(C)C)C(=O)N[C@@H]([C@@H](C)CC)C(=O)N(C)CC(=O)N(C)[C@H]3C/C=C\CCN(C3=O)[C@@H](Cc3ccc(C(F)(F)F)cc3)C(=O)N(C)CC(=O)N[C@@H](CCc3ccc4sccc4c3)C(=O)N2C1 [PP1225]	92.5	1.1	A (a compound having 10 or more and less than 20 is denoted as A)	AA (a compound having 20 or more is denoted as AA)
CCO[C@@H]1C[C@H]2C(=O)NC3(CCC3)C(=O)N(C)[C@@H](C(CC)CC)C(=O)N(C)[C@H](C(=O)N(C)C)CC(=O)N(C)[C@@H](CC3CC3)C(=O)N[C@@H]([C@@H](C)CC)C(=O)N(C)CC(=O)N(C)[C@H]3C/C=C\CCN(C3=O)[C@@H](Cc3ccc(C(F)(F)F)cc3)C(=O)N(C)CC(=O)N[C@@H](CCc3ccc4sccc4c3)C(=O)N2C1 [PP1227]	128	1.6	A (a compound having 10 or more and less than 20 is denoted as A)	A (a compound having 10 or more and less than 20 is denoted as A)
CCO[C@@H]1C[C@H]2C(=O)NC3(CCC3)C(=O)N(C)[C@@H](C(CC)CC)C(=O)N(C)[C@H](C(=O)N(C)C)CC(=O)N(C)[C@@H](CC)C(=O)N[C@@H]([C@@H](C)CC)C(=O)N(C)CC(=O)N(C)[C@H]3C/C=C\CCN(C3=O)[C@@H](Cc3ccc(C(F)(F)F)cc3)C(=O)N(C)CC(=O)N[C@@H](CCc3cc(F)c(Cl)c(F)c3)C(=O)N2C1 [PP1230]	110	0.77	A (a compound having 10 or more and less than 20 is denoted as A)	A (a compound having 10 or more and less than 20 is denoted as A)
CCC[C@H]1C(=O)N[C@@H]([C@@H](C)CC)C(=O)N(C)CC(=O)N(C)[C@H]2C/C=C\CCN(C2=O)[C@@H](Cc2ccc(C(F)(F)F)cc2)C(=O)N(C)CC(=O)N[C@@H](CCc2cc(F)c(Cl)c(F)c2)C(=O)N2C[C@H](OCC)C[C@H]2C(=O)NC2(CCC2)C(=O)N(C)[C@@H](C(CC)CC)C(=O)N(C)[C@H](C(=O)N(C)C)CC(=O)N1C [PP1231]	23.1	0.56	A (a compound having 10 or more and less than 20 is denoted as A)	AA (a compound having 20 or more is denoted as AA)
CCO[C@@H]1C[C@H]2C(=O)NC3(CCC3)C(=O)N(C)[C@@H](C(CC)CC)C(=O)N(C)[C@H](C(=O)N(C)C)CC(=O)N(C)[C@@H](CC3CC3)C(=O)N[C@@H]([C@@H](C)CC)C(=O)N(C)CC(=O)N(C)[C@H]3C/C=C\CCN(C3=O)[C@@H](Cc3ccc(C(F)(F)F)cc3)C(=O)N(C)CC(=O)N[C@@H](CCc3cc(F)c(Cl)c(F)c3)C(=O)N2C1 [PP1233]	34.7	0.66	A (a compound having 10 or more and less than 20 is denoted as A)	AA (a compound having 20 or more is denoted as AA)

Further molecules by falling IC50 [3], results first:

IC50 [3] [nM]	Kd [4] [nM]	SMILES	HRAS/KRAS (ratio of KD value for HRAS to KD value for KRAS) [1]	NRAS/KRAS (ratio of KD value for NRAS to KD value for KRAS) [2]
144	1.3	CCO[C@@H]1C[C@H]2C(=O)NC3(CCC3)C(=O)N(C)[C@@H](C(CC)CC)C(=O)N(C)[C@H](C(=O)N(C)C)CC(=O)N(C)[C@@H](COC)C(=O)N[C@@H]([C@@H](C)CC)C(=O)N(C)CC(=O)N(C)[C@H]3C/C=C\CCN(C3=O)[C@@H](Cc3ccc(C(F)(F)F)cc3)C(=O)N(C)CC(=O)N[C@@H](CCc3ccc4sccc4c3)C(=O)N2C1 [PP1229]	A (a compound having 10 or more and less than 20 is denoted as A)	A (a compound having 10 or more and less than 20 is denoted as A)
117	1.2	CCO[C@@H]1C[C@H]2C(=O)NC3(CCC3)C(=O)N(C)[C@@H](C(CC)CC)C(=O)N(C)[C@H](C(=O)N(C)C)CC(=O)N(C)[C@@H](CC)C(=O)N[C@@H]([C@@H](C)CC)C(=O)N(C)CC(=O)N(C)[C@H]3C/C=C\CCN(C3=O)[C@@H](Cc3ccc(C(F)(F)F)cc3)C(=O)N(C)CC(=O)N[C@@H](CCc3ccc4sccc4c3)C(=O)N2C1 [PP1223]	A (a compound having 10 or more and less than 20 is denoted as A)	AA (a compound having 20 or more is denoted as AA)
106	2.4	CCCCCC[C@H]1C(=O)N[C@@H]([C@@H](C)CC)C(=O)N(C)CC(=O)N(C)[C@H]2C/C=C\CCN(C2=O)[C@@H](Cc2ccc(C(F)(F)F)cc2)C(=O)N(C)CC(=O)N[C@@H](CCc2ccc3sccc3c2)C(=O)N2C[C@H](OCC)C[C@H]2C(=O)NC2(CCC2)C(=O)N(C)[C@@H](C(CC)CC)C(=O)N(C)[C@H](C(=O)N(C)C)CC(=O)N1C [PP1226]	A (a compound having 10 or more and less than 20 is denoted as A)	AA (a compound having 20 or more is denoted as AA)
67.9	0.88	CCCCCC[C@H]1C(=O)N[C@@H]([C@@H](C)CC)C(=O)N(C)CC(=O)N(C)[C@H]2C/C=C\CCN(C2=O)[C@@H](Cc2ccc(C(F)(F)F)cc2)C(=O)N(C)CC(=O)N[C@@H](CCc2ccc(Cl)c(Cl)c2)C(=O)N2C[C@H](OCC)C[C@H]2C(=O)NC2(CCC2)C(=O)N(C)[C@@H](C(CC)CC)C(=O)N(C)[C@H](C(=O)N(C)C)CC(=O)N1C [PP1218]	A (a compound having 10 or more and less than 20 is denoted as A)	AA (a compound having 20 or more is denoted as AA)
59.7	0.67	CCO[C@@H]1C[C@H]2C(=O)NC3(CCC3)C(=O)N(C)[C@@H](C(CC)CC)C(=O)N(C)[C@H](C(=O)N(C)C)CC(=O)N(C)[C@@H](CC(C)C)C(=O)N[C@@H]([C@@H](C)CC)C(=O)N(C)CC(=O)N(C)[C@H]3C/C=C\CCN(C3=O)[C@@H](Cc3ccc(C(F)(F)F)cc3)C(=O)N(C)CC(=O)N[C@@H](CCc3cc(F)c(Cl)c(F)c3)C(=O)N2C1 [PP1232]	A (a compound having 10 or more and less than 20 is denoted as A)	A (a compound having 10 or more and less than 20 is denoted as A)
40.6	0.4	CCO[C@@H]1C[C@H]2C(=O)NC3(CCC3)C(=O)N(C)[C@@H](C(CC)CC)C(=O)N(C)[C@H](C(=O)N(C)C)CC(=O)N(C)[C@@H](COC)C(=O)N[C@@H]([C@@H](C)CC)C(=O)N(C)CC(=O)N(C)[C@H]3C/C=C\CCN(C3=O)[C@@H](Cc3ccc(C(F)(F)F)cc3)C(=O)N(C)CC(=O)N[C@@H](CCc3ccc(Cl)c(Cl)c3)C(=O)N2C1 [PP1221]	A (a compound having 10 or more and less than 20 is denoted as A)	AA (a compound having 20 or more is denoted as AA)
22.2	0.57	CCO[C@@H]1C[C@H]2C(=O)NC3(CCC3)C(=O)N(C)[C@@H](C(CC)CC)C(=O)N(C)[C@H](C(=O)N(C)C)CC(=O)N(C)[C@@H](CC3CCCC3)C(=O)N[C@@H]([C@@H](C)CC)C(=O)N(C)CC(=O)N(C)[C@H]3C/C=C\CCN(C3=O)[C@@H](Cc3ccc(C(F)(F)F)cc3)C(=O)N(C)CC(=O)N[C@@H](CCc3ccc(Cl)c(Cl)c3)C(=O)N2C1 [PP1220]	A (a compound having 10 or more and less than 20 is denoted as A)	AA (a compound having 20 or more is denoted as AA)
21.4	0.35	CCO[C@@H]1C[C@H]2C(=O)NC3(CCC3)C(=O)N(C)[C@@H](C(CC)CC)C(=O)N(C)[C@H](C(=O)N(C)C)CC(=O)N(C)[C@@H](CC3CC3)C(=O)N[C@@H]([C@@H](C)CC)C(=O)N(C)CC(=O)N(C)[C@H]3C/C=C\CCN(C3=O)[C@@H](Cc3ccc(C(F)(F)F)cc3)C(=O)N(C)CC(=O)N[C@@H](CCc3ccc(Cl)c(Cl)c3)C(=O)N2C1 [PP1219]	A (a compound having 10 or more and less than 20 is denoted as A)	AA (a compound having 20 or more is denoted as AA)
